From patent US20250109118A1, “HETEROCYCLIC COMPOUNDS AS SHP2 INHIBITORS, COMPOSITIONS COMPRISING THE HETEROCYCLIC COMPOUND, AND METHODS OF USE THEREOF” (JS INNOMED HOLDINGS LTD., priority 2021, published 2025)

Tested on: MiaPaCa-2 cells
Test: MiaPaCa-2 Cell proliferation assay in 3D culture (CCK8)
Assay type: cell-based
Conditions: Homo sapiens, MIA PaCa-2, 120 h; 3D spheroid culture, 5 days with compound, CCK8 readout
Protocol: MiaPaCa-2 Cell proliferation assay in 3D culture. To evaluate cell viability, MiaPaCa-2 cells in logarithmic growth phase were seeded at optimal density and grown in as spheroids. Cells were incubated for 24 hours prior to the addition of different concentrations of the compounds. Cells were cultured with the compounds for 5 days and the cell viability was assessed using CCK8. Briefly, 2500 cells were seeded in round bottom ultra-low attachment 96 well plates (coming) in growth media supplemented with 10% FBS and incubated at 37° C. for 24 hours. The compounds were dissolved in DMSO (Sigma) to obtain 10 mM stock solution. Then the compounds were serially diluted in 3-fold to ten concentrations; 5 μL of the dilution above was transferred to 95 uL culture media to obtain the 50× compound stock solution; 4 uL of the 50× compound above was then transferred to the wells containing cells with 196 μL of the culture medium to obtain the final 1× concentration. The final concentration of DMSO was 0.1%. Spheroid cells were incubated in compounds for 5 days. Then 20 μL WST-8 solution (DOJINDO, Cell Counting KIT-8) was added to each well. The plates were further incubated at 37° C. for 1.5 hours, and then absorbance at 450 nm was measured using a microplate reader. Each compound was tested in triplicate and the IC50 value was calculated using GraphPad Prism.
The IC50 values of for Compounds disclosed are listed in Table 2, A: ≤500 nM; B: >500 nM and ≤5 μM; C: >5 μM and ≤50 μM; and D: >50 μM.

| SMILES | IC50 |
| --- | --- |
| Cc1noc(C)c1S(=O)(=O)NC(=O)Nc1nccc(Sc2cnc(N3CCC4(CC3)CO[C@@H](C)[C@H]4N)cn2)c1Cl [Example 76, N-((4-((5-((3S,4S)-4-amino-3-methyl-2-oxa-8-azaspiro[4.5]decan-8-yl)pyrazin-2-yl)thio)-3-chloropyridin-2-yl)carbamoyl)-3,5-dimethylisoxazole-4-sulfonamide] | ≤ 500 nM |
| C[C@@H]1OCC2(CCN(c3cnc(Sc4ccnc(C(=O)NS(=O)(=O)c5ccccc5)c4Cl)cn3)CC2)[C@@H]1N [Example 71, 4-((5-((3S,4S)-4-amino-3-methyl-2-oxa-8-azaspiro[4.5]decan-8-yl)pyrazin-2-yl)thio)-3-chloro-N-(phenylsulfonyl)picolinamide] | 500 to 5000 nM |
| C[C@@H]1OCC2(CCN(c3cnc(Sc4cccc(NS(=O)(=O)NC(=O)c5ccccc5)c4Cl)cn3)CC2)[C@@H]1N [Example 80, N—(N-(3-((5-((3S,4S)-4-amino-3-methyl-2-oxa-8-azaspiro[4.5]decan-8-yl)pyrazin-2-yl)thio)-2-chlorophenyl)sulfamoyl)benzamide] | ≤ 500 nM |
| C[C@@H]1OCC2(CCN(c3cnc(Sc4cccc(NC(=O)NS(=O)(=O)C5CCC5)c4Cl)cn3)CC2)[C@@H]1N [Example 82, N-((3-((5-((3S,4S)-4-amino-3-methyl-2-oxa-8-azaspiro[4.5]decan-8-yl)pyrazin-2-yl)thio)-2-chlorophenyl)carbamoyl)cyclobutanesulfonamide] | ≤ 500 nM |
| C[C@@H]1OCC2(CCN(c3cnc(Sc4ccnc(NC(=O)NS(=O)(=O)c5cccc(F)c5)c4Cl)cn3)CC2)[C@@H]1N [Example 50, N-((4-((5-((3S,4S)-4-amino-3-methyl-2-oxa-8-azaspiro[4.5]decan-8-yl)pyrazin-2-yl)thio)-3-chloropyridin-2-yl)carbamoyl)-3-fluorobenzenesulfonamide] | ≤ 500 nM |
| C[C@@H]1OCC2(CCN(c3cnc(Sc4cccc(NC(=O)NS(=O)(=O)C5CC5)c4Cl)cn3)CC2)[C@@H]1N [Example 66, N-((3-((5-((3S,4S)-4-amino-3-methyl-2-oxa-8-azaspiro[4.5]decan-8-yl)pyrazin-2-yl)thio)-2-chlorophenyl)carbamoyl)cyclopropanesulfonamide] | ≤ 500 nM |
| C[C@@H]1OCC2(CCN(c3cnc(Sc4ccnc(NC(=O)NS(=O)(=O)c5ccccc5)c4F)cn3)CC2)[C@@H]1N [Example 56, N-((4-((5-((3S,4S)-4-amino-3-methyl-2-oxa-8-azaspiro[4.5]decan-8-yl)pyrazin-2-yl)thio)-3-fluoropyridin-2-yl)carbamoyl)benzenesulfonamide] | ≤ 500 nM |
| C[C@@H]1OCC2(CCN(c3cnc(Sc4cccc(NC(=O)NS(=O)(=O)N5CCC(O)C5)c4Cl)cn3)CC2)[C@@H]1N (stereo partly drawn) [Example 81, N-((3-((5-((3S,4S)-4-amino-3-methyl-2-oxa-8-azaspiro[4.5]decan-8-yl)pyrazin-2-yl)thio)-2-chlorophenyl)carbamoyl)-3-hydroxypyrrolidine-1-sulfonamide] | ≤ 500 nM |
| CC1(CN)CCN(c2cnc(Sc3ccnc(NC(=O)NS(=O)(=O)c4ccccc4)c3Cl)cn2)CC1 [Example 48, N-((4-((5-(4-(aminomethyl)-4-methylpiperidin-1-yl)pyrazin-2-yl)thio)-3-chloropyridin-2-yl)carbamoyl)benzenesulfonamide] | ≤ 500 nM |
| Cc1nc(N2CCC3(CC2)CO[C@@H](C)[C@H]3N)c(CO)nc1Sc1ccnc(NC(=O)NS(=O)(=O)c2ccccc2)c1Cl [Example 59, N-((4-((5-((3S,4S)-4-amino-3-methyl-2-oxa-8-azaspiro[4.5]decan-8-yl)-6-(hydroxymethyl)-3-methylpyrazin-2-yl)thio)-3-chloropyridin-2-yl)carbamoyl)benzenesulfonamide] | ≤ 500 nM |
| C[C@@H]1OCC2(CCN(c3cnc(Sc4cccc(NC(=O)NS(=O)(=O)c5ccncc5)c4Cl)cn3)CC2)[C@@H]1N [Example 72, N-((3-((5-((3S,4S)-4-amino-3-methyl-2-oxa-8-azaspiro[4.5]decan-8-yl)pyrazin-2-yl)thio)-2-chlorophenyl)carbamoyl)pyridine-4-sulfonamide] | ≤ 500 nM |
| C[C@@H]1OCC2(CCN(c3cnc(Sc4cccc(NC(=O)NS(=O)(=O)c5ccccc5F)c4Cl)cn3)CC2)[C@@H]1N [Example 10, N-((3-((5-((3S,4S)-4-amino-3-methyl-2-oxa-8-azaspiro[4.5]decan-8-yl)pyrazin-2-yl)thio)-2-chlorophenyl)carbamoyl)-2-fluorobenzenesulfonamide] | ≤ 500 nM |
| CC1(CN)CCN(c2cnc(Sc3cccc(NC(=O)NS(=O)(=O)c4ccccn4)c3Cl)c(N)n2)CC1 [Example 45, N-((3-((3-amino-5-(4-(aminomethyl)-4-methylpiperidin-1-yl)pyrazin-2-yl)thio)-2-chlorophenyl)carbamoyl)pyridine-2-sulfonamide] | ≤ 500 nM |
| CC1(CN)CCN(c2cnc(Sc3cccc(NC(=O)NS(=O)(=O)c4ccccc4F)c3Cl)c(N)n2)CC1 [Example 47, N-((3-((3-amino-5-(4-(aminomethyl)-4-methylpiperidin-1-yl)pyrazin-2-yl)thio)-2-chlorophenyl)carbamoyl)-2-fluorobenzenesulfonamide] | 500 to 5000 nM |
| C[C@@H]1OCC2(CCN(c3cnc(Sc4cccc(NC(=O)NS(=O)(=O)c5ccccn5)c4Cl)cn3)CC2)[C@@H]1N [Example 63, N-((3-((5-((3S,4S)-4-amino-3-methyl-2-oxa-8-azaspiro[4.5]decan-8-yl)pyrazin-2-yl)thio)-2-chlorophenyl)carbamoyl)pyridine-2-sulfonamide] | ≤ 500 nM |
| C[C@@H]1OCC2(CCN(c3cnc(Sc4cccc(NS(=O)(=O)NC(=O)N5CCCC5)c4Cl)cn3)CC2)[C@@H]1N [Example 16, N—(N-(3-((5-((3S,4S)-4-amino-3-methyl-2-oxa-8-azaspiro[4.5]decan-8-yl)pyrazin-2-yl)thio)-2-chlorophenyl)sulfamoyl)pyrrolidine-1-carboxamide] | ≤ 500 nM |
| CC1(CN)CCN(c2cnc(Sc3cccc(NC(=O)NS(=O)(=O)c4cccnc4)c3Cl)c(N)n2)CC1 [Example 46, N-((3-((3-amino-5-(4-(aminomethyl)-4-methylpiperidin-1-yl)pyrazin-2-yl)thio)-2-chlorophenyl)carbamoyl)pyridine-3-sulfonamide] | ≤ 500 nM |
| C[C@@H]1OCC2(CCN(c3cnc(Sc4cccc(NC(=O)NS(=O)(=O)c5cnn(C)c5)c4Cl)cn3)CC2)[C@@H]1N [Example 79, N-((3-((5-((3S,4S)-4-amino-3-methyl-2-oxa-8-azaspiro[4.5]decan-8-yl)pyrazin-2-yl)thio)-2-chlorophenyl)carbamoyl)-1-methyl-1H-pyrazole-4-sulfonamide] | ≤ 500 nM |
| C[C@@H]1OCC2(CCN(c3cnc(Sc4cccc(S(=O)(=O)NC(=O)NC5CCCC5)c4Cl)cn3)CC2)[C@@H]1N [Example 17, 3-((5-((3S,4S)-4-amino-3-methyl-2-oxa-8-azaspiro[4.5]decan-8-yl)pyrazin-2-yl)thio)-2-chloro-N-(cyclopentylcarbamoyl)benzenesulfonamide] | ≤ 500 nM |
| CC1(CN)CCN(c2cnc(Sc3cccc(C(=O)NS(=O)(=O)C4CCCC4)c3Cl)c(N)n2)CC1 [Example 44, 3-((3-amino-5-(4-(aminomethyl)-4-methylpiperidin-1-yl)pyrazin-2-yl)thio)-2-chloro-N-(cyclopentylsulfonyl)benzamide] | ≤ 500 nM |
| N[C@@H]1c2cnccc2CC12CCN(c1cnc(Sc3cccc(NC(=O)NS(=O)(=O)c4ccccc4)c3Cl)cn1)CC2 [Example 67, (S)—N-((3-((5-(7-amino-5,7-dihydrospiro[cyclopenta[c]pyridine-6,4′-piperidin]-1′-yl)pyrazin-2-yl)thio)-2-chlorophenyl)carbamoyl)benzenesulfonamide] | ≤ 500 nM |
| C[C@@H]1OCC2(CCN(c3cnc(Sc4ccnc(NC(=O)NS(=O)(=O)c5cncc(F)c5)c4Cl)cn3)CC2)[C@@H]1N [Example 58, N-((4-((5-((3S,4S)-4-amino-3-methyl-2-oxa-8-azaspiro[4.5]decan-8-yl)pyrazin-2-yl)thio)-3-chloropyridin-2-yl)carbamoyl)-5-fluoropyridine-3-sulfonamide] | ≤ 500 nM |
| C[C@@H]1OCC2(CCN(c3cnc(Sc4cccc(NS(=O)(=O)NC(=O)Nc5ccccc5)c4Cl)cn3)CC2)[C@@H]1N [Example 12, ((3S,4S)-8-(5-((2-chloro-3-((N-(phenylcarbamoyl)sulfamoyl)amino)phenyl)thio)pyrazin-2-yl)-3-methyl-2-oxa-8-azaspiro[4.5]decan-4-yl)amine] | ≤ 500 nM |
| Cc1nc(N2CCC(C)(CN)CC2)c(CO)nc1Sc1ccnc(NC(=O)NS(=O)(=O)c2ccccc2)c1Cl [Example 9, N-((4-((5-(4-(aminomethyl)-4-methylpiperidin-1-yl)-6-(hydroxymethyl)-3-methylpyrazin-2-yl)thio)-3-chloropyridin-2-yl)carbamoyl)benzenesulfonamide] | ≤ 500 nM |
| Cc1noc(C)c1S(=O)(=O)NC(=O)Nc1cccc(Sc2cnc(N3CCC4(CC3)CO[C@@H](C)[C@H]4N)cn2)c1Cl [Example 65, N-((3-((5-((3S,4S)-4-amino-3-methyl-2-oxa-8-azaspiro[4.5]decan-8-yl)pyrazin-2-yl)thio)-2-chlorophenyl)carbamoyl)-3,5-dimethylisoxazole-4-sulfonamide] | ≤ 500 nM |
